Assays:
[1] = tested on: A549 (lung cancer) cell line; test: Cell viability, WST-1 assay, A549 cells; format: cell-based; settings: 48 and 72 hours, WST-1, FIGS. 1 and 2
[2] = tested on: PC3 (prostate cancer) cell line; test: Cell viability, WST-1 assay, PC3 cells; format: cell-based; settings: 48 and 72 hours, WST-1, FIGS. 3 and 4
[3] = tested on: imiquimod-induced dermatitis; test: Imiquimod-induced psoriasiform dermatitis in mice, topical ointment; format: in vivo
C. neoformans = settings: in vitro, maximal inhibition

Structure (SMILES)	doses reducing cancer cell viability, relative to those required for similar reductions by compound AF [1]	doses reducing cancer cell viability, relative to those required for similar reductions by compound AF [2]	ear thickness (caliper measurements) ([3]; female Balb/C mice, 0.01% ointment topically on ears, started day 5 of imiquimod, FIG. 5)	PASI scoring (erythema, thickening, scaling, cumulative) ([3]; female Balb/C mice, 0.01% ointment topically on ears, started day 5 of imiquimod, FIGS. 6A-D)	efficacy in model of psoriasiform dermatitis ([3]; ointment concentration of 0.01%)	inhibition of C. neoformans growth (ceiling) (C. neoformans)
c1ccc(Oc2cccc(Cc3nc4cnc5ccccc5c4[nH]3)c2)cc1 [Compound GE, 2-(3-Phenoxybenzyl)-1H-imidazo[4,5-c]quinoline]	approximately 1/10	approximately 1/10	reduced imiquimod-induced inflammatory damage to mouse ears	reducing all three aspects of dermal inflammation captured by the PASI scoring system	effective	
CCN(CC)CCCC(C)Nc1ccnc2cc(Cl)ccc12 (stereo not drawn) [Chloroquine]						about 40%
